Results on 19 compounds are retold here after patent publication US8735414B2 (priority 2009, dated 2014).

The structures appear in SMILES notation. A value given as a limit tells only on which side of the number the result lay.

For series [1], the system named is bicistronic HCV replicon (replicon RNA, GenBank Accession No. AJ242654). The experiment in a line: HCV Replicon Assay. It counts as cell-based. The conditions noted are these: Hepatitis C virus, 72 h, read-out: Replicon IC50. (A replicon is a self-replicating genome or part of one, used to study replication in cells.)

Usually IC50 stands for the concentration that inhibits the measured activity by half. One may read the melting point as the temperature, or range, at which the solid turns liquid. Consider `C[C@H](NS(=O)(=O)c1ccc(-c2c(C#N)c3cc(F)c(Cl)cc3n2C2CCC2)nc1)C(F)(F)F` [compound 360, 6-(6-chloro-3-cyano-1-cyclobutyl-5-fluoro-1H-indol-2-yl)-N-[(2S)-1,1,1-trifluoropropan-2-yl]pyridine-3-sulfonamide], for which the melting point was in the range of 203 to 206 °C. Besides, the concentration for half-maximal inhibition (IC50) in series [1] was less than 0.5 µM.

The compound `N#Cc1c(-c2ncc(S(=O)(=O)NC(CF)CF)cn2)n(C2CCC2)c2cc(Cl)ccc12` [compound 176, 2-(6-chloro-3-cyano-1-cyclobutyl-1H-indol-2-yl)-N-(1,3-difluoropropan-2-yl)pyrimidine-5-sulfonamide] yielded a melting point of 243 to 246 °C. Also, in series [1], the concentration for half-maximal inhibition (IC50) is less than 0.5 µM.

On to `Cc1cc2c(C#N)c(-c3ccc(S(=O)(=O)N[C@@H](C)C(F)(F)F)cn3)n(C3CCC3)c2cc1OC(F)F` [compound 660, 6-[3-cyano-1-cyclobutyl-6-(difluoromethoxy)-5-methyl-1H-indol-2-yl]-N-[(2S)-1,1,1-trifluoropropan-2-yl]pyridine-3-sulfonamide], for which the melting point was in the range of 168 to 170 °C. In series [1], the IC50 is less than 0.5 µM.

Compound `Cc1ccc2c(C#N)c(-c3ccc(S(=O)(=O)NC(C)(C)C(F)(F)F)cn3)n(-c3ccccn3)c2c1` [compound 686, 6-[3-cyano-6-methyl-1-(pyridin-2-yl)-1H-indol-2-yl]-N-(1,1,1-trifluoro-2-methylpropan-2-yl)pyridine-3-sulfonamide] came in with a melting point of 208 to 209 °C. Also, the 50% inhibitory concentration (IC50) in series [1] was less than 0.5 µM.

For `Cc1cc2c(cc1F)c(C(=O)O)c(-c1ccc(S(=O)(=O)NC(C)(C)C(F)(F)F)cn1)n2C1CCCC1` [compound 765, 1-cyclopentyl-5-fluoro-6-methyl-2-{5-[(1,1,1-trifluoro-2-methylpropan-2-yl)sulfamoyl]pyridin-2-yl}-1H-indole-3-carboxylic acid], the melting point lay in the range of 233 to 234 °C. The IC50 in series [1] is less than 0.5 µM.

For the compound `C[C@H](NS(=O)(=O)c1ccc(-c2c(C#N)c3cc(Cl)ccc3n2-c2ccccn2)nc1)C1CC1` [compound 490, 6-[5-chloro-3-cyano-1-(pyridin-2-yl)-1H-indol-2-yl]-N-[(1S)-1-cyclopropylethyl]pyridine-3-sulfonamide], the melting point was 136 to 139 °C. Also, the IC50 in series [1] is 2 to 5 µM.

For the compound `CC(C)n1c(-c2ncc(S(=O)(=O)N[C@@H](C)C(F)(F)F)cn2)c(C#N)c2ccc(Cl)cc21` [compound 418, 2-[6-chloro-3-cyano-1-(propan-2-yl)-1H-indol-2-yl]-N-[(2S)-1,1,1-trifluoropropan-2-yl]pyrimidine-5-sulfonamide], the melting point was in the range of 241 to 248 °C. Besides, the IC50 in series [1] was in the range of 0.5 to 2 µM.

For the compound `Cc1cc2c(cc1F)c(C(=O)O)c(-c1ccc(S(=O)(=O)NC(C)(C)C)cn1)n2C1CCCC1` [compound 766, 2-[5-(tert-butylsulfamoyl)pyridin-2-yl]-1-cyclopentyl-5-fluoro-6-methyl-1H-indole-3-carboxylic acid], the melting point lay within 238 to 240 °C. Further, the IC50 in series [1] was less than 0.5 µM.

Turning to `CCc1cc2c(cc1F)c(C#N)c(-c1ccc(S(=O)(=O)N[C@@H](C)C(F)(F)F)cn1)n2-c1cc(C)ccn1` [compound 932, 6-[3-cyano-6-ethyl-5-fluoro-1-(4-methylpyridin-2-yl)-1H-indol-2-yl]-N-[(2S)-1,1,1-trifluoropropan-2-yl]pyridine-3-sulfonamide], the melting point lay in the range of 188 to 190 °C. Moreover, the half-maximal inhibitory concentration (IC50) in series [1] was less than 0.5 µM.

`C[C@@H](NS(=O)(=O)c1cnc(-c2c(C#N)c3ccc(C4CC4)cc3n2C2CCC2)nc1)C(F)(F)F` [compound 180, 2-(3-cyano-1-cyclobutyl-6-cyclopropyl-1H-indol-2-yl)-N-[(2R)-1,1,1-trifluoropropan-2-yl]pyrimidine-5-sulfonamide] showed a melting point of 211 to 212 °C. In addition, the half-maximal inhibitory concentration (IC50) in series [1] lay in the range of 0.5 to 2 µM.

`C[C@@H](NS(=O)(=O)c1ccc(-c2c(C#N)c3cc(Cl)ccc3n2-c2ccccn2)nc1)C(F)(F)F` [compound 491, 6-[5-chloro-3-cyano-1-(pyridin-2-yl)-1H-indol-2-yl]-N-[(2R)-1,1,1-trifluoropropan-2-yl]pyridine-3-sulfonamide]: the melting point lay within 150 to 154 °C. Moreover, in series [1], the half-inhibitory concentration (IC50) lay in the range of 0.5 to 2 µM.

In turn, `NC(=O)c1c(-c2ccc(S(=O)(=O)NC3(C(F)(F)F)CC3)cn2)n(C2CCC2)c2cc(OC(F)F)c(F)cc12` [compound 809, 1-cyclobutyl-6-(difluoromethoxy)-5-fluoro-2-(5-{[1-(trifluoromethyl)cyclopropyl]sulfamoyl}pyridin-2-yl)-1H-indole-3-carboxamide] showed a melting point of 197 to 200 °C. Besides, the concentration for half-maximal inhibition (IC50) in series [1] is less than 0.5 µM.

`N#Cc1c(-c2ccc(S(=O)(=O)NC(CF)CF)cn2)n(C2CCC2)c2ccc(OC(F)F)cc12` [compound 32, 6-[3-cyano-1-cyclobutyl-5-(difluoromethoxy)-1H-indol-2-yl]-N-(1,3-difluoropropan-2-yl)pyridine-3-sulfonamide] had a melting point of 166 to 172 °C. Further, the IC50 in series [1] is less than 0.5 µM.

In turn, `Cc1ccc2c(C#N)c(-c3ccc(S(=O)(=O)NC4(C(F)(F)F)CCC4)cn3)n(C3CCCC3)c2c1` [compound 253, 6-(3-cyano-1-cyclopentyl-6-methyl-1H-indol-2-yl)-N-[1-(trifluoromethyl)cyclobutyl]pyridine-3-sulfonamide] yielded a melting point of 214 to 218 °C. For the same compound, the 50% inhibitory concentration (IC50) in series [1] is less than 0.5 µM.

In the case of `Cc1ccc2c(C#N)c(-c3ccc(S(=O)(=O)N[C@H](C)C(F)(F)F)cn3)n(C3CCC3)c2c1` [compound 192, 6-(3-cyano-1-cyclobutyl-6-methyl-1H-indol-2-yl)-N-[(2R)-1,1,1-trifluoropropan-2-yl]pyridine-3-sulfonamide], the melting point is 204 to 208 °C. Also, in series [1], the IC50 is less than 0.5 µM.

`N#Cc1c(-c2ccc(S(=O)(=O)NC(CF)CF)cn2)n(-c2ccccn2)c2cc(Cl)ccc12` [compound 438, 6-[6-chloro-3-cyano-1-(pyridin-2-yl)-1H-indol-2-yl]-N-(1,3-difluoropropan-2-yl)pyridine-3-sulfonamide] had a melting point of 219 to 221 °C. Further, in series [1], the half-inhibitory concentration (IC50) is less than 0.5 µM.

`Cc1cc2c(cc1F)c(C(N)=O)c(-c1ccc(S(=O)(=O)NC(C)(C)C)cn1)n2C1CCC1` [compound 800, 2-[5-(tert-butylsulfamoyl)pyridin-2-yl]-1-cyclobutyl-5-fluoro-6-methyl-1H-indole-3-carboxamide]: the melting point was in the range of 189 to 193 °C. Besides, the IC50 in series [1] is less than 0.5 µM.

Turning to `CCc1cc2c(cc1F)c(C(N)=O)c(-c1ccc(S(=O)(=O)N[C@@H](C)C(F)(F)F)cn1)n2-c1ccncc1` [compound 1045, 6-ethyl-5-fluoro-1-(pyridin-4-yl)-2-(5-{[(2S)-1,1,1-trifluoropropan-2-yl]sulfamoyl}pyridin-2-yl)-1H-indole-3-carboxamide], the melting point fell in the range of 219 to 224 °C. In addition, the IC50 in series [1] was less than 0.5 µM.

Turning to `C[C@H](NS(=O)(=O)c1ccc(-c2c(C#N)c3ccc(C(F)(F)F)cc3n2-c2ncccn2)nc1)C(F)(F)F` [compound 950, 6-[3-cyano-1-(pyrimidin-2-yl)-6-(trifluoromethyl)-1H-indol-2-yl]-N-[(2S)-1,1,1-trifluoropropan-2-yl]pyridine-3-sulfonamide], the melting point lay in the range of 206 to 210 °C. Moreover, the half-inhibitory concentration (IC50) in series [1] is less than 0.5 µM.
